Values quoted from earlier work, collected in patent US20110189166A1, “METHODS OF TREATING HEMORHEOLOGIC ABNORMALITIES IN MAMMALS” (priority 2010, published 2011).

Experiments:
[1] = test system: flippase; details: independent of excess intracellular calcium
[2] = test system: human erythrocytes; details: red blood cells exposed to LPA
[3] = test system: cows; details: inorganic phosphate for 2-5 days
[4] = test system: red blood cell; details: in vitro
[5] = test system: aminophospholipid translocase (flippase); details: by complexing a sulfhydryl group
[6] = test system: crenated or spiculated red blood cells (echinocytes); details: horses, after exercise; U.S. Pat. No. 4,383,997

## Lysophosphatidic acid [LPA]
[1]
  flippase inhibition: inhibit flippase directly
[2]
  PS exposure on red blood cells: resulted in PS exposure
  adherence to endothelial cells: increased adherence to endothelial cells
  thrombin generation: potentiated thrombin generation

## O=P(O)(O)O [inorganic phosphate]
[3]
  hemolysis after treatment: absence of hemolysis
  time to complete recovery: 14 to 21 days

## CCCC(=O)Nc1ncnc2c1ncn2[C@@H]1O[C@@H]2COP(=O)(O)O[C@H]2[C@H]1OC(=O)CCC [dibutyryl-cAMP]
[4]
  PS exposure: prevents PS exposure
  intracellular calcium entry: inhibits intracellular calcium entry
  reduction of red blood cell aggregation: about 50%

## CCN1C(=O)C=CC1=O [NEM, N-ethylmaleimide]
[5]
  activity of aminophospholipid translocase (flippase): blocks the activity of aminophospholipid translocase (flippase)

## CC(=O)CCCCn1c(=O)c2c(ncn2C)n(C)c1=O [pentoxyfylline]
[6]
  increase of crenated red blood cells following exercise: inhibit the increase of crenated red blood cells following exercise
